Laboratory results reported in ChEMBL document CHEMBL5376009 (RSC Med Chem, 2024).

Assays:
Assay type in all cases: functional, organism-based
Influenza A virus [1] = assay: Antiviral activity against influenza A virus A/WSN/1933 (H1N1) harboring Tamiflu- sensitive neuraminidase (274H) infected in MDCK cells assessed as reduction in cytopathic effect by fluorescence based analysis
Influenza A virus [2] = assay: Antiviral activity against influenza A virus A/WSN/1933 (H1N1) infected in MDCK cells harbouring TamiFlu sensitive neuraminidase 274H mutant assessed as reduction in cytopathic effect by DAPI staining based analysis
Influenza A virus [3] = assay: Antiviral activity against influenza A virus A/WSN/1933 (H1N1) harboring Tamiflu- sensitive neuraminidase (274Y) infected in MDCK cells assessed as reduction in cytopathic effect by fluorescence based analysis
Influenza A virus [4] = assay: Antiviral activity against influenza A virus A/WSN/1933 (H1N1) infected in MDCK cells harbouring TamiFlu sensitive neuraminidase 274Y mutant assessed as reduction in cytopathic effect by DAPI staining based analysis
Influenza A virus [5] = assay: Antiviral activity against Oseltamivir-resistant Influenza A virus (H1N1) pdm09

SMILES | IC50 (Influenza A virus [1]) [nM] | EC50 (Influenza A virus [2]) [nM] | EC50 (Influenza A virus [3]) [nM] | EC50 (Influenza A virus [4]) [nM] | EC50 (Influenza A virus [5]) [nM]
Cc1onc(-c2ccccc2Cl)c1C(=O)N1CCN(c2ccc([N+](=O)[O-])cc2Cl)CC1 | 70 | 140 | 140 | 140 | 
COc1cccc(OC)c1C(=O)/C=C/c1nc(C)c(C)nc1C |  |  |  |  | 1040
